According to patent publication US6737383B1, “Herbicidal oxadiazolidines” (priority 1999, dated 2004):

Key:
corn = experiment: Test B pre/postemergence corn; format: in vivo, Zea mays
Outline: (§1)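 Herbicidal effect was estimated by eye on a ten-point control scale after plants spent twelve to sixteen days in a greenhouse following soil or foliar treatment. Foliar sprays targeted plants at one to four leaves; all doses were formulated in a non-phytotoxic solvent with surfactant.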

crabgrass = experiment: Test B pre/postemergence crabgrass; format: in vivo, Digitaria sanguinalis
Outline: as §1

velvetleaf = experiment: Test B pre/postemergence velvetleaf; format: in vivo, Abutilon theophrasti
Outline: as §1

rice = experiment: Test B flood test rice; format: in vivo, Oryza sativa
Outline: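 Flood test on plants grown to the 2-leaf stage; treated plants kept in greenhouse twelve to sixteen days, then visually rated against controls on a 0 (no effect) to 10 (complete control) scale.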

[1] = Preemergence, Rate 31 g/ha, visual rating, scale 0 to 10 (0 no effect, 10 complete control)
[2] = Preemergence, Rate 62 g/ha, scale of 0 to 10 where 0 is no effect and 10 is complete control
[3] = Preemergence, Rate 250 g/ha, scale of 0 to 10 where 0 is no effect and 10 is complete control
[4] = Rate 31 g/ha, Postemergence, scale 0 to 10
[5] = Rate 62 g/ha, Postemergence, scale of 0 to 10 where 0 is no effect and 10 is complete control
[6] = Rate 125 g/ha, Postemergence, scale 0 to 10
[7] = Rate 125 g/ha, Preemergence, scale of 0 to 10 where 0 is no effect and 10 is complete control
[8] = Rate 62 g/ha, headed Pre-emergence (flood test species), scale 0 to 10 (0 no effect, 10 complete control)
[9] = Rate 125 g/ha, Pre-emergence, flood test species, scale 0 to 10 where 0 is no effect and 10 is complete control
[10] = Rate 250 g/ha, Pre-emergence, flood-test species, scale 0 to 10, 0 is no effect, 10 is complete control
[11] = Preemergence, Rate 500 g/ha, scale of 0 to 10 where 0 is no effect and 10 is complete control
[12] = Rate 500 g/ha, Postemergence, scale 0 to 10, 0 no effect, 10 complete control
[13] = Rate 500 g/ha, Pre-emergence, flood test species, scale 0 to 10 (0 no effect, 10 complete control)
[14] = Postemergence, Rate 1000 g/ha, scale 0 to 10 (0 no effect, 10 complete control)
[15] = Rate 125 g/ha, Postemergence, scale of 0 to 10 where 0 is no effect and 10 is complete control
[16] = Rate 250 g/ha, Postemergence, scale of 0 to 10 where 0 is no effect and 10 is complete control
[17] = Rate 1000 g/ha, Preemergence, scale 0 to 10 (0 no effect, 10 complete control)

Row | Compound | Corn plant response rating (corn; [2]) | Corn plant response rating (corn; [3]) | Corn plant response rating (corn; [5]) | Corn plant response rating (corn; [6]) | Corn plant response rating (corn; [7]) | Plant response rating (0 to 10; 0 is no effect, 10 is complete control), Corn (corn; Rate 250 g/ha, Postemergence) | Crabgrass plant response rating (crabgrass; [2]) | Crabgrass plant response rating (crabgrass; [3]) | Crabgrass plant response rating (crabgrass; [5]) | Crabgrass plant response rating (crabgrass; [6]) | Crabgrass plant response rating (crabgrass; [7]) | Plant response rating (0 to 10; 0 is no effect, 10 is complete control), Crabgrass (crabgrass; Rate 250 g/ha, Postemergence) | Velvetleaf plant response rating (velvetleaf; [2]) | Velvetleaf plant response rating (velvetleaf; [3]) | Velvetleaf plant response rating (velvetleaf; [5]) | Velvetleaf plant response rating (velvetleaf; [6]) | Velvetleaf plant response rating (velvetleaf; [7]) | Plant response rating (0 to 10; 0 is no effect, 10 is complete control), Velvetleaf (velvetleaf; Rate 250 g/ha, Postemergence) | Rice plant response rating (rice; [9]) | Rice plant response rating (rice; [10]) | other results
1 | CC(=O)Cn1c(=O)on(C(=O)N(c2ccc(F)cc2)C(C)C)c1=O [Compound 217] | 0 | 0 | 0 | 0 | 0 | 0 | 3 | 8 | 0 | 2 | 4 | 3 | 0 | 5 | 0 | 0 | 1 | 0 | 0 | 0 | Corn plant response rating (corn; [1]): 0; Corn plant response rating (corn; [4]): 0; Crabgrass plant response rating (crabgrass; [1]): 0; Crabgrass plant response rating (crabgrass; [4]): 0; Velvetleaf plant response rating (velvetleaf; [1]): 0; Rice plant response rating (rice; Rate 31 g/ha, Pre-emergence section (flood test species), scale 0 to 10): 0; Rice plant response rating (rice; [8]): 0
2 | COc1cc(C)cc(C)c1-n1c(=O)on(C(=O)N(c2ccc(F)cc2F)C(C)C)c1=O [Compound 223] | 0 | 0 | 0 | 0 | 0 | 0 | 4 | 7 | 0 | 0 | 6 | 1 | 0 | 0 | 0 | 0 | 0 | 2 | 0 | 0 | Plant response rating, Corn (corn; [11]): 0; Corn plant response rating (corn; [12]): 0; Plant response rating, Crabgrass (crabgrass; [11]): 9; Crabgrass plant response rating (crabgrass; [12]): 3; Plant response rating, Velvetleaf (velvetleaf; [11]): 0; Velvetleaf plant response rating (velvetleaf; [12]): 3; Rice plant response rating (rice; [8]): 0; Rice plant response rating (rice; [13]): 0
3 | CCOC(=O)C(C)N(C(=O)n1oc(=O)n(C2CCCCC2)c1=O)c1ccc(F)cc1 (centres unmarked) [Compound 280] |  | 0 |  |  | 0 |  |  | 0 |  |  | 0 |  |  | 0 |  |  | 0 |  | 0 | 0 | Corn plant response rating (corn; [14]): 0; Plant response rating, Corn (corn; [11]): 0; Corn plant response rating (corn; [15]): 0; Plant response rating, Corn (corn; [16]): 0; Corn plant response rating (corn; [12]): 0; Plant response rating, Corn (corn; [17]): 0; Crabgrass plant response rating (crabgrass; [14]): 0; Plant response rating, Crabgrass (crabgrass; [11]): 0; Crabgrass plant response rating (crabgrass; [15]): 0; Plant response rating, Crabgrass (crabgrass; [16]): 0; Crabgrass plant response rating (crabgrass; [12]): 0; Plant response rating, Crabgrass (crabgrass; [17]): 0; Velvetleaf plant response rating (velvetleaf; [14]): 0; Plant response rating, Velvetleaf (velvetleaf; [11]): 0; Velvetleaf plant response rating (velvetleaf; [15]): 0; Plant response rating, Velvetleaf (velvetleaf; [16]): 0; Velvetleaf plant response rating (velvetleaf; [12]): 0; Plant response rating, Velvetleaf (velvetleaf; [17]): 0; Rice plant response rating (rice; Pre-emergence, Rate 1000 g/ha, scale 0 to 10 (0 no effect, 10 complete control)): 0; Rice plant response rating (rice; [13]): 0
